Reference: patent US20250296953A1, “3,4-THIAZOLO-STEROIDS AND METHODS OF MAKING AND USING THE SAME” (Arkansas State University - Jonesboro, priority 2018, published 2025)
Where two headings read alike, the source gives them in different places.

Key:
[1] = system: 60 different human tumor cell lines; assay: NCI Development Therapeutics Program 60 cell line screen, one dose; type: cell-based
NCI-H522 (NSCLC) = assay: NCI 60 one dose screen; type: cell-based, human; conditions: Non-small Cell Lung Cancer
SF-295 = assay: NCI 60 one dose screen; type: cell-based, human; conditions: one dose; CNS Cancer; SF-295
SF-539 = assay: NCI 60 one dose screen; type: cell-based, human; conditions: one dose; CNS Cancer; SF-539
[2] = system: 60 different human tumor cell lines; conditions: five dose
glioblastoma (SF-295) = assay: NCI 60 five dose screen
RPMI-8226 = assay: NCI 60 five dose screen
SR = assay: NCI 60 five dose screen

In the case of `C[C@]12CCc3sc(Nc4ccc(OC(F)(F)F)cc4)nc3C1=CC[C@@H]1[C@@H]2CC[C@]2(C)C(=O)CC[C@@H]12` [IIa.19, (1S,2R,13R,14S,18S)-2,18-dimethyl-7-[4-(trifluoromethoxy)anilino]-6-thia-8-azapentacyclo[11.7.0.02,10.05,9.014,18]icosa-5(9),7,10-trien-17-one], the “Growth Percent” value ([1]; Breast Cancer, BT-549) is reported as 53.50%, the “Growth Percent” value ([1]; Breast Cancer, HS 578T) is reported as 38.46% and the “Growth Percent” value ([1]; Breast Cancer, MCF7) is reported as 17.08%. The “Growth Percent” value ([1]; Breast Cancer, MDA-MB-231/ATCC) was 73.45%, the “Growth Percent” value ([1]; Breast Cancer, MDA-MB-468) was 69.12% and the “Growth Percent” value ([1]; Breast Cancer, T-47D) was 41.82%. The “Growth Percent” value ([1]; CNS Cancer, SF-268) was 68.55%, the “Growth Percent” value ([1]; CNS Cancer, SNB-19) was 56.49% and the “Growth Percent” value ([1]; CNS Cancer, SNB-75) was 68.60%. The “Growth Percent” value ([1]; CNS Cancer, U251) was 34.08%, the “Growth Percent” value ([1]; Colon Cancer, COLO 205) was 67.03% and the “Growth Percent” value ([1]; Colon Cancer, HCC-2998) was 96.47%. For the same compound, the “Growth Percent” value ([1]; Colon Cancer, HCT-116) was 7.77%, the “Growth Percent” value ([1]; Colon Cancer, HT29) was 12.95% and the “Growth Percent” value ([1]; Colon Cancer, KM12) was 53.51%. The “Growth Percent” value ([1]; Colon Cancer, SW-620) was 43.34%, the “Growth Percent” value ([1]; Leukemia, CCRF-CEM) was 5.05% and the “Growth Percent” value ([1]; Leukemia, HL-60(TB)) was 43.98%. For the same compound, the “Growth Percent” value ([1]; Leukemia, K-562) was 8.20%, the “Growth Percent” value ([1]; Leukemia, MOLT-4) was 4.15% and the “Growth Percent” value ([1]; Leukemia, RPMI-8226) was 2.88%. The “Growth Percent” value ([1]; Leukemia, SR) was 16.86%, the “Growth Percent” value ([1]; Melanoma, LOX IMVI) was 34.82% and the “Growth Percent” value ([1]; Melanoma, M14) was 83.90%. For the same compound, the “Growth Percent” value ([1]; Melanoma, MALME-3M) was 76.83%, the “Growth Percent” value ([1]; Melanoma, MDA-MB-435) was 77.59% and the “Growth Percent” value ([1]; Melanoma, SK-MEL-2) was 61.81%. The “Growth Percent” value ([1]; Melanoma, SK-MEL-5) was 95.89%, the “Growth Percent” value ([1]; Melanoma, SK-MEL-28) was 65.29% and the “Growth Percent” value ([1]; Melanoma, UACC-62) was 63.42%. For the same compound, the “Growth Percent” value ([1]; Melanoma, UACC-257) was 84.04%, the “Growth Percent” value ([1]; Non-small Cell Lung Cancer, A549/ATCC) was 67.03% and the “Growth Percent” value ([1]; Non-small Cell Lung Cancer, EKVX) was 78.41%. The “Growth Percent” value ([1]; Non-small Cell Lung Cancer, HOP-62) was 80.02%, the “Growth Percent” value ([1]; Non-small Cell Lung Cancer, HOP-92) was 74.98% and the “Growth Percent” value ([1]; Non-small Cell Lung Cancer, NCI-H23) was 75.47%. For the same compound, the “Growth Percent” value ([1]; Non-small Cell Lung Cancer, NCI-H226) was 74.91%, the “Growth Percent” value ([1]; Non-small Cell Lung Cancer, NCI-H322M) was 77.29% and the “Growth Percent” value ([1]; Non-small Cell Lung Cancer, NCI-H460) was 53.27%. The “Growth Percent” value ([1]; Ovarian Cancer, IGROV1) was 93.62%, the “Growth Percent” value ([1]; Ovarian Cancer, NCI/ADR-RES) was 81.59% and the “Growth Percent” value ([1]; Ovarian Cancer, OVCAR-3) was 37.42%. For the same compound, the “Growth Percent” value ([1]; Ovarian Cancer, OVCAR-4) was 63.99%, the “Growth Percent” value ([1]; Ovarian Cancer, OVCAR-5) was 91.93% and the “Growth Percent” value ([1]; Ovarian Cancer, OVCAR-8) was 66.51%. For the same compound, the “Growth Percent” value ([1]; Ovarian Cancer, SK-OV-3) was 69.90%, the “Growth Percent” value ([1]; Prostate Cancer, DU-145) was 66.11% and the “Growth Percent” value ([1]; Prostate Cancer, PC-3) was 38.59%. For the same compound, the “Growth Percent” value ([1]; Renal Cancer, 786-0) was 30.50%, the “Growth Percent” value ([1]; Renal Cancer, A498) was 75.00% and the “Growth Percent” value ([1]; Renal Cancer, ACHN) was 71.59%. The “Growth Percent” value ([1]; Renal Cancer, CAKI-1) was 60.44%, the “Growth Percent” value ([1]; Renal Cancer, RXF 393) was −32.25% and the “Growth Percent” value ([1]; Renal Cancer, SN12C) was 71.17%. The “Growth Percent” value ([1]; Renal Cancer, TK-10) was 98.20%, the “Growth Percent” value ([1]; Renal Cancer, UO-31) was 54.33% and the “Growth Percent” value (NCI-H522 (NSCLC)) was 89.13%. The “Growth Percent” value (SF-295) was −2.71%, the “Growth Percent” value (SF-539) was −5.40% and the TGI ([2]; A549/ATCC (Non-small Cell Lung Cancer)) was 1.61E−5. The TGI ([2]; CCRF-CEM (Leukemia)) was >1.00E−4, the TGI ([2]; COLO 205 (Colon Cancer)) was 6.76E−6 and the TGI ([2]; EKVX (Non-small Cell Lung Cancer)) was 1.74E−5. For the same compound, the TGI ([2]; HCC-2998 (Colon Cancer)) was 1.86E−5, the TGI ([2]; HCT-15 (Colon Cancer)) was 4.10E−6 and the TGI ([2]; HCT-116 (Colon Cancer)) was 2.78E6. For the same compound, the TGI ([2]; HL-60(TB) (Leukemia)) was 4.44E−6, the TGI ([2]; HOP-62 (Non-small Cell Lung Cancer)) was 4.19E−6 and the TGI ([2]; HOP-92 (Non-small Cell Lung Cancer)) was 3.44E−6. The TGI ([2]; HT29 (Colon Cancer)) was 1.09E−5, the TGI ([2]; K-562 (Leukemia)) was 6.64E−6 and the TGI ([2]; KM12 (Colon Cancer)) was 1.50E−5. For the same compound, the TGI ([2]; LOX IMVI (Melanoma)) was 3.18E−6, the TGI ([2]; MALME-3M (Melanoma)) was 1.68E−5 and the TGI ([2]; MOLT-4 (Leukemia)) was 1.19E−5. The TGI ([2]; NCI-H23 (Non-small Cell Lung Cancer)) was 2.17E−5, the TGI ([2]; NCI-H226 (Non-small Cell Lung Cancer)) was 4.41E−5 and the TGI ([2]; NCI-H322M (Non-small Cell Lung Cancer)) was 4.89E−5. For the same compound, the TGI ([2]; NCI-H460 (Non-small Cell Lung Cancer)) was 1.18E−5, the TGI ([2]; NCI-H522 (Non-small Cell Lung Cancer)) was 4.56E−6 and the TGI ([2]; SF-268 (CNS Cancer)) was 1.23E−5. The TGI ([2]; SNB-19 (CNS Cancer)) was 9.93E−6, the TGI ([2]; SNB-75 (CNS Cancer)) was 6.23E−6 and the TGI ([2]; SW-620 (Colon Cancer)) was 5.00E−6. The TGI ([2]; U251 (CNS Cancer)) was 3.26E−6, the GI50 (glioblastoma (SF-295); Homo sapiens, SF-295) was 700 nM and the CC50 (glioblastoma (SF-295); Homo sapiens, SF-295, read-out: LC50) was 7160 nM. The TGI (glioblastoma (SF-295); SF-295 (CNS Cancer), five dose) was 2.44E−6, the GI50 (RPMI-8226; Homo sapiens, RPMI-8226) was 1020 nM and the CC50 (RPMI-8226; Homo sapiens, RPMI-8226, read-out: LC50) was > 100000 nM. The TGI (RPMI-8226; RPMI-8226 (Leukemia), five dose) was 3.77E−6, the GI50 (SR; Homo sapiens, SR) was 2740 nM and the CC50 (SR; Homo sapiens, SR, read-out: LC50) was > 100000 nM. The TGI (SR; SR (Leukemia), five dose) was >1.00E−4.
